Data: ChEMBL document CHEMBL4376858, “Structure-Activity Relationships of Novel Thiazole-Based Modafinil Analogues Acting at Monoamine Transporters” (J Med Chem, 2020)
Calls of active or inactive are those of the source. Unless noted, the calls are words filed in the database; no cut-off is given here.

Tests used:
[1] = target: T1, Sodium-dependent dopamine transporter (Homo sapiens, UniProt Q01959); test: Inhibition of human DAT expressed in HEK293 cells preloaded with [3H]-MPP+ assessed as decrease in tritium efflux at 10 uM measured every 4 mins by liquid scintillation counting analysis; type: cell-based
[2] = Drug level in Sprague-Dawley rat brain at 7.5 mg/kg, ip compound dissolved in 40% Kolliphor-EL in water measured after 1 hr by LC-MS/MS analysis; type: ADME, organism-based; details: read-out: Ct
[3] = Neurotoxicity in rat cortical neuron assessed as inhibition of neurite total length per neuron incubated for 72 hrs by Hoechst 33342 staining based ArrayScan analysis; type: toxicity, cell-based, Cortical neurone; details: rat cortical neurons
[4] = target: T1, Sodium-dependent dopamine transporter; test: Potency index, ratio of (R)-modafinil IC50 to compound IC50 for wild type human dopamine transporter expressed in HEK293 cells assessed as inhibition of [3H]dopamine reuptake preincubated for 5 mins followed by [3H]dopamine addition and measured after 1 min by liquid scintillation analysis; type: cell-based
[5] = Half life in Sprague-Dawley rat at 7.5 mg/kg, ip compound dissolved in 40% Kolliphor-EL in water by LC-MS/MS analysis; type: ADME, organism-based; details: in vivo
[6] = Ratio of IC50 for neurotoxicity against rat cortical neuron assessed as inhibition of mean neurite average length by ArrayScan analysis to IC50 for wild type human dopamine transporter expressed in HEK293 cells
[7] = Neurotoxicity in rat cortical neuron assessed as inhibition of neurite outgrowth by measuring mean neurite average length incubated for 72 hrs by Hoechst 33342 staining based ArrayScan analysis; type: toxicity, cell-based, Cortical neurone; details: rat cortical neurons
[8] = Drug level in Sprague-Dawley rat brain at 7.5 mg/kg, ip compound dissolved in 40% Kolliphor-EL in water measured after 10 hrs by LC-MS/MS analysis; type: ADME, organism-based; details: in vivo, BLD = below limit of detection
[9] = Ratio of IC50 for neurotoxicity against rat cortical neuron assessed as inhibition of valid neuron count by ArrayScan analysis to IC50 for wild type human dopamine transporter expressed in HEK293 cells
[10] = target: Sodium-dependent noradrenaline transporter (Homo sapiens, UniProt P23975); test: Inhibition of wild type human NET expressed in HEK293 cells assessed as inhibition of [3H]-MPP+ reuptake preincubated for 5 mins followed by [3H]MPP+ addition and measured after 3 mins by liquid scintillation counting analysis; type: cell-based; details: read-out: IC50
[11] = Drug level in Sprague-Dawley rat brain at 7.5 mg/kg, ip compound dissolved in 40% Kolliphor-EL in water measured after 7 hrs by LC-MS/MS analysis; type: ADME, organism-based; details: read-out: Ct
[12] = Cardiotoxicity in human Cor.4U hiPSC-CM cells assessed as early after depolarization at 10 uM measured after 30 mins by FluoVolt dye based fluorescence assay; type: toxicity; details: 0.5 h
[13] = target: Sodium-dependent serotonin transporter (Homo sapiens, UniProt P31645); type: cell-based, HEK293; details: hek293
Description: Inhibition of wild type human SERT expressed in HEK293 cells assessed as inhibition of [3H]-5HT reuptake preincubated for 5 mins followed by [3H]5HT addition and measured after 1 min by liquid scintillation counting analysis

[14] = Plasma concentration in Sprague-Dawley rat at 7.5 mg/kg, ip compound dissolved in 40% Kolliphor-EL in water measured after 10 hrs by LC-MS/MS analysis; type: ADME, organism-based
[15] = Plasma concentration in Sprague-Dawley rat at 7.5 mg/kg, ip compound dissolved in 40% Kolliphor-EL in water measured after 1 hr by LC-MS/MS analysis; type: ADME, organism-based
[16] = AUC(0 to infinity) in Sprague-Dawley rat at 7.5 mg/kg, ip compound dissolved in 40% Kolliphor-EL in water by LC-MS/MS analysis; type: ADME, organism-based; design: dose 7.5 mg/kg, time infinity, route intraperitoneal; details: in vivo
[17] = Cardiotoxicity in human Cor.4U hiPSC-CM cells assessed as effect on action potential duration at 10 uM measured after 30 mins by FluoVolt dye based fluorescence assay; type: toxicity; details: 0.5 h
[18] = Neurotoxicity in rat cortical neuron assessed as inhibition of valid neuron count incubated for 72 hrs by Hoechst 33342 staining based ArrayScan analysis; type: toxicity, cell-based, Cortical neurone; details: rat cortical neurons
[19] = target: T1, Sodium-dependent dopamine transporter; test: Inhibition of wild type human dopamine transporter expressed in HEK293 cells assessed as inhibition of [3H]dopamine reuptake preincubated for 5 mins followed by [3H]dopamine addition and measured after 1 min by liquid scintillation analysis; type: cell-based; details: read-out: IC50
[20] = system: Rattus norvegicus; test: Increase in extracellular dopamine level in Sprague-Dawley rat nucleus accumbens in brain at 10 mg/kg, ip measured after 50 mins by RP-HPLC analysis based microdialysis method relative to control; type: functional
[21] = Plasma concentration in Sprague-Dawley rat at 7.5 mg/kg, ip compound dissolved in 40% Kolliphor-EL in water measured after 3 hrs by LC-MS/MS analysis; type: ADME, organism-based
[22] = Ratio of IC50 for neurotoxicity against rat cortical neuron assessed as inhibition of neurite total length per neuron by ArrayScan analysis to IC50 for wild type human dopamine transporter expressed in HEK293 cells
[23] = Drug level in Sprague-Dawley rat brain at 7.5 mg/kg, ip compound dissolved in 40% Kolliphor-EL in water measured after 3 hrs by LC-MS/MS analysis; type: ADME, organism-based; details: read-out: Ct
[24] = target: T1, Sodium-dependent dopamine transporter; test: Potency index, ratio of modafinil IC50 to compound IC50 for wild type human dopamine transporter expressed in HEK293 cells assessed as inhibition of [3H]dopamine reuptake preincubated for 5 mins followed by [3H]dopamine addition and measured after 1 min by liquid scintillation analysis; type: cell-based
[25] = Plasma concentration in Sprague-Dawley rat at 7.5 mg/kg, ip compound dissolved in 40% Kolliphor-EL in water measured after 7 hrs by LC-MS/MS analysis; type: ADME, organism-based
[26] = system: Rattus norvegicus; test: Increase in extracellular dopamine level in Sprague-Dawley rat nucleus accumbens in brain at 1 mg/kg, ip measured after 50 mins by RP-HPLC analysis based microdialysis method; type: functional, organism-based
[27] = Cardiotoxicity in human Cor.4U hiPSC-CM cells assessed as effect on action potential shape at 10 uM measured after 30 mins by FluoVolt dye based fluorescence assay; type: toxicity; details: 0.5 h
[28] = target: T1, Sodium-dependent dopamine transporter; test: Inhibition of human DAT expressed in HEK293 cells preloaded with [3H]-MPP+ assessed as reduction in D-amphetamine-induced tritium efflux at 10 uM treated with compound prior to amphetamine challenge measured every 4 mins by liquid scintillation counting analysis; type: cell-based

T1 sequence (Q01959 whole entry): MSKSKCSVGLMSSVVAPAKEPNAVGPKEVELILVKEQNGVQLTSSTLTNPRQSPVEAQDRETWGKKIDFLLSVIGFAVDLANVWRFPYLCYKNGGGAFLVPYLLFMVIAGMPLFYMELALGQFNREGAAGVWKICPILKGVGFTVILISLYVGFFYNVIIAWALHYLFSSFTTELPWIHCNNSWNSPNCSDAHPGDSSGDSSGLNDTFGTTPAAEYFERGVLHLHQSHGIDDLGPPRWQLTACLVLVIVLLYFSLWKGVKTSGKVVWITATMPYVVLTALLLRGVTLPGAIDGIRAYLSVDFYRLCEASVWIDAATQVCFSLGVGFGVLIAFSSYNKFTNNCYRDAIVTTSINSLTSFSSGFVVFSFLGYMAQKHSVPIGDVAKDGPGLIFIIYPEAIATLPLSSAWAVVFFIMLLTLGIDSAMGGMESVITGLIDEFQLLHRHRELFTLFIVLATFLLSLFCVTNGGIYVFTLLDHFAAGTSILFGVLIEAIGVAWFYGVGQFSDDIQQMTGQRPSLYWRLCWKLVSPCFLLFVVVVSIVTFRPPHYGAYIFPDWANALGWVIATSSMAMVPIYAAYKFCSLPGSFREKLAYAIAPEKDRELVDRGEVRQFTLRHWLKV
Chain of Sodium-dependent serotonin transporter (P31645 whole entry): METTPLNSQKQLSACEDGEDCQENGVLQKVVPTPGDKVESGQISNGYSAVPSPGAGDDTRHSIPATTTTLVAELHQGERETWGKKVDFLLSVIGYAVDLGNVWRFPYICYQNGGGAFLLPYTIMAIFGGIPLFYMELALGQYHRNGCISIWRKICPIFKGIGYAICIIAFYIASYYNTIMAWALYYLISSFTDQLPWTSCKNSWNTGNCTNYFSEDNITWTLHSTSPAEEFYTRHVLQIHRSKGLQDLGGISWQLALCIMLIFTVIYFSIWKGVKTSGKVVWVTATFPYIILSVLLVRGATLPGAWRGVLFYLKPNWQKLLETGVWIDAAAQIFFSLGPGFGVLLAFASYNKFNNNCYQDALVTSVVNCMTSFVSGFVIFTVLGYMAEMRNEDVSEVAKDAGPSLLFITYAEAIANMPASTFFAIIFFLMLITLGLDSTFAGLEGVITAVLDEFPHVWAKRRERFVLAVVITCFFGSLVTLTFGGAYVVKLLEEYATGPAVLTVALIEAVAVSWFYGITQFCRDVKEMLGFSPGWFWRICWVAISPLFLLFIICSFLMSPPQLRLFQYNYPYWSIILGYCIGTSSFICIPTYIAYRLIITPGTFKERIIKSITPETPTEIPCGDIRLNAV
Chain of Sodium-dependent noradrenaline transporter (P23975 whole entry): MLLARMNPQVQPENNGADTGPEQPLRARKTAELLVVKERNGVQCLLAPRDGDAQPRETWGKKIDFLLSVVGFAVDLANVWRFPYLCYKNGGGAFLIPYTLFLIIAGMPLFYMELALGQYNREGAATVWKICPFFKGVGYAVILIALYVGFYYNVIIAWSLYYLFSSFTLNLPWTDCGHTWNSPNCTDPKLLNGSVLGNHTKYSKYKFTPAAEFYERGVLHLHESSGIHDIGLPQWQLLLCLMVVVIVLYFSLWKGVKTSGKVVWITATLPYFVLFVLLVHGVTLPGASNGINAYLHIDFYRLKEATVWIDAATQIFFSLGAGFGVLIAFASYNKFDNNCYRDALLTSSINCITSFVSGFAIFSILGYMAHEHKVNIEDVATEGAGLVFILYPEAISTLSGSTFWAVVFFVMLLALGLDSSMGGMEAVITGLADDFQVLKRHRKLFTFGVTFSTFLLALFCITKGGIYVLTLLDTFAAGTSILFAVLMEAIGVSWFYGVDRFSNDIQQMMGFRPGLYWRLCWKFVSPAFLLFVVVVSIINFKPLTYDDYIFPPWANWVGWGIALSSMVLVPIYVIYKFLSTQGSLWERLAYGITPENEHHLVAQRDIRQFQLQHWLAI

Compound: [O-][S@@+](Cc1cscn1)[C@@H](c1ccccc1)c1ccc(Br)cc1
- inhibition [1]: Active
- concentration at 1 h [2]: 803 nM
- IC50 at 72 h [3]: > 100 µM
- Ratio IC50 [4]: 10
- half-life [5]: 96 min
- Ratio IC50 [6]: >100
- IC50 at 72 h [7]: > 100 µM
- Ct [8]: Bld
- Ratio IC50 [9]: >100
- IC50 [10]: 73.3 µM
- concentration at 7 h [11]: 44.3 nM
- Activity [12]: Non-Toxic
- IC50 [13]: Not Active
- concentration at 10 h [14]: 23.8 nM
- concentration at 1 h [15]: 2200 nM
- AUC(0-inf) [16]: 5.84 µM·h
- Activity [17]: Non-Toxic
- IC50 at 72 h [18]: > 100 µM
- IC50 [19]: 650 nM
- Activity [20]: 20%
- concentration at 3 h [21]: 1210 nM
- Ratio IC50 [22]: >100
- concentration at 3 h [23]: 409 nM
- Ratio IC50 [24]: 20
- concentration at 7 h [25]: 89.6 nM
- Activity [26]: inactive
- Activity [27]: Non-Toxic
- inhibition [28]: Active
